The subject of one test is Calf thymus (CT) DNA. In words: SAXS of DNA + tobramycin (+ cationic lipid) suspensions. In kind it is binding. The text has this:
For our studies of the sequestration of aminoglycoside antibiotics by model CF sputum and subsequent release by the administration of surfactants we used the following materials. The aminoglycoside antibiotic used in our experiments was Tobramycin (Sigma Aldrich), commonly used to treat infections of Pseudomonas aeruginosa in CF patients. […] For the DNA+tobramycin experiments we used Calf thymus (CT) DNA (USB Corp. Cleveland Ohio), purified it using standard techniques, and resuspended it in an aqueous solution of 100 mM NaCl 5 mM Tris and 5 mM PIPES adjusted to pH 7. DNA has a charge of approximately −2/base pair.
Surfactant materials used in the present experiments were a mixture of two lipids DOTAP (1,2-Dioleoyl-3-Trimethylammonium-Propane) and DOPE (1,2-Dioleoyl-sn-Glycero-3-Phosphoethanolamine) (Avanti Polar lipids, Alabaster Al.) in mass ratios of about 70:30 and about 25:75. DOTAP is a cationic lipid (charge of +1) with no curvature, and DOPE is a neutral lipid with negative curvature. Briefly, the lipids were first dissolved in chloroform, then dried under nitrogen and redissolved in an aqueous solution. The aqueous salt solution was then sonicated to form unilamellar lipid vescicles, and filtered through 0.2 micron pores.
Aminoglycoside antibiotic sequestration by negatively charged bio-polymers in respiratory mucous of CF patients was measured via two techniques. The first method was to use x-ray diffraction techniques to discern the structure of suspensions of mixtures of biopolymers and antibiotic. Specific x-ray diffraction studies were done to determine the structure of mixtures of the DNA with tobramycin and the lipid mixture. The isoelectric DNA-lipid-monovalent salt solutions were sealed in 1.5 mm quartz capillaries (Hilgenberg GmbH; Malsfeld, Germany) and mixed thoroughly by centrifugation. The approximate sample volume in the capillary was 30 μl-60 μl. SAXS experiments were performed as described previously. Tobramycin has charge of approximately +5 at physiological pH, whereas DNA is negatively charged, thus when the ratio of net DNA charge is approximately equal to the net tobramycin charge (T/D˜1), the tobramycin condenses the DNA. The resulting structure is a bundle of DNA. The structures observed via x-ray diffraction indicate whether or not the tobramycin is sequestered with the DNA or free in suspension. The present invention uses positively charged lipids to replace the tobramycin in these bundles, thereby increasing the efficacy of the antibiotic. Consequently, our experiments used a fixed DNA concentration of 3 mg/ml (x-ray experiments) and a varied concentration of tobramycin and/or lipid. Concentrations are varied such that the ratio of positive to negative charges is known. Similar x-ray diffraction studies can be conducted wherein mucin, instead of DNA, is the sequestration agent to examine mucin+tobramycin+lipid complexes and kinetics.

Test [1] concerns Pseudomonas aeruginosa (PA01). In words: Bacterial killing assay, tobramycin with or without mucin. It counts as cell-based. The procedure: Tobramycin sequestration was also measured via bacteriological killing assays. In these bacterial killing assay experiments Pseudomonas aeruginosa (PA01), the primary bacteria responsible for infection in CF patients, was incubated in the presence of mucin, DNA, tobramycin, lipid or various mixtures of these four materials. Killing assays were performed in the following manner: PA01 was grown in cation adjusted Mueller-Hinton media to a concentration greater than 5×10^8, sedimented by centrifugation and resuspended in a buffered solution of 5 mM Tris 5 mM PIPES and 100 mM NaCl at pH 7.2. A quantity of […]. of PAO1 were incubated for 3.5 hours in the buffered salt solution with varied concentrations of tobramycin, DNA, mucin, and lipids. The mucin concentrations were either 0 mg/ml (control) or 10 mg/ml which is near the physiologically measured concentrations of mucin. Lipids added to the bacterial solution were added in varying concentrations in order to determine the amount needed to release tobramycin from its strong interaction with mucin and/or DNA. The bacterial solution was serially diluted and plated on MH-agar plates. Plates were incubated overnight and the number of bacterial colonies counted.

The next test concerns the target T1, F-actin (Oryctolagus cuniculus, UniProt P68135).
T1 construct: prepared from a lyophilized powder of rabbit skeletal muscle; purchased Cytoskeleton, Inc. (Denver, Col.); host or cells: rabbit skeletal muscle (tissue-derived)
In words: SAXS of F-actin / hen egg white lysozyme bundles. In kind it is binding, rabbit. How it is done:
Monomeric G-actin (MW 42,000) was prepared from a lyophilized powder of rabbit skeletal muscle purchased from Cytoskeleton, Inc. (Denver, Col.). The non-polymerizing G-actin solution contained a 5 mM TRIS buffer at pH 8.0, with 0.2 mM CaCl2, 0.5 mM ATP, and 0.2 mM DTT and 0.01% NaN3. G-actin (2 mg/ml) was polymerized into F-actin (linear charge density λA˜−1 e /2.5 Å at pH 7) upon the addition of salt (100 mM KCl). Human plasma gelsolin (Cytoskeleton, Inc., Denver, Col.) was used to control the average F-actin length between 0.1 μm to 10 μm. The filaments were treated with phalloidin (Sigma Aldrich, St. Louis, Mo., MW 789.2) to prevent actin depolymerization and resuspended to a final concentration of ˜26.67 mg/ml using Millipore (Billerica, Mass.) H2O (18.2MΩ). Hen Egg White Lysozyme (MW 14,300, Sigma Aldrich, St. Louis, Mo.) was dissolved in Millipore H2O (18.2MΩ) to a final concentration ˜25 mg/ml. Lysozyme carries a pH dependent charge of +9 or +10 and has dimensions of approximately ˜26Å×26Å×45 Å.
The F-actin—lysozyme isoelectric point is found at a concentration ratio of ˜2.5:1 F-actin:lysozyme. X-ray samples were prepared at various F-actin:lysozyme concentration ratios on either side of the isoelectric point, including 2:1, 2.5:1, 3:1, and 5:1. […]

Values after ≈ are worked out from the molar mass of the structure shown.

Take `NC[C@H]1O[C@H](O[C@H]2[C@H](O)[C@@H](O[C@H]3O[C@H](CO)[C@@H](O)[C@H](N)[C@H]3O)[C@H](N)C[C@@H]2N)[C@H](N)C[C@@H]1O` [tobramycin]: in the test on Calf thymus (CT) DNA (DNA 3 mg/ml, pH 7), the “ratio of tobramycin charge to DNA charge (T/D) at which bundled DNA peak appears” value is reported as ~1 and the “tobramycin concentration at which bundled DNA peak appears” value amounted to 1.9 mM. In addition, the “preference of interaction, DNA versus F-actin” value with Calf thymus (CT) DNA (F-actin 5 mg/ml + DNA 1 mg/ml + tobramycin) was “preferentially interacts with DNA over F-actin”. The “sequestration of tobramycin by DNA at raised lipid concentration” value in the test on Calf thymus (CT) DNA (T/D approaching 1, L/D=2) is given as “again unsequestered by the DNA”. Besides, the “sequestration of tobramycin by DNA without lipid” value in the test on Calf thymus (CT) DNA (T/D=0.5 and T/D=0.9, absence of lipids) is on record as “sequestered by DNA”. Also, the “sequestration of tobramycin by DNA with cationic lipid” value in the test with Calf thymus (CT) DNA (lipid concentration greater than or equal to that required for DNA charge neutralization) is “not sequestered”. The “tobramycin concentration until which mucin inhibits killing ability” value in test [1] (10 mg/ml mucin) was 20 × the minimal inhibitory concentration (MIC). Further, the MIC in test [1] (Pseudomonas aeruginosa, 3.5 hours, 5 mM Tris 5 mM PIPES 100 mM NaCl pH 7.2, read-out: minimal inhibitory concentration (MIC)) is ~5 mg/L (≈ 10.7 µM). The “biological accessibility, fraction of the available dose” value in test [1] (sequestration by anionic polyelectrolytes of CF sputum) is listed as 1/20.

Take “lysozyme: Hen Egg White Lysozyme (MW 14,300, Sigma Aldrich)”: in the test with F-actin, the “NaCl concentration up to which the F-actin-lysozyme close pack bundling peak increases” value is listed as ~150 mM. Besides, the “salt concentration above which the lysozyme-actin bundling peak disappears” value with F-actin (NaCl) is reported as “above 200 mM”.
